From US20250171420A1 (Monte Rosa Therapeutics, Inc., priority 2022, published 2025)
pIC50: −log10 of the molar value.

Experiments:
CK1α = molecular target: T1, CK1α (Homo sapiens, UniProt P48729); experiment: CK1α NanoBit Assay (HiBiT-tagged CSNK1A1, HEK293 clonal lines); type: cell-based; settings: HEK293 HiBiT-CSNK1A1/LgBiT cells, 24 h incubation
T1 construct: HEK293 clonal lines with CRISPR KI HiBiT tag on CSNK1A1
In short: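 HEK293 clones carrying a CRISPR knock-in HiBiT tag on CSNK1A1 and stably expressing LgBiT are treated with compound for 24 hours at 37° C, 5% CO2, then read by luminescence. Response is normalized as 100*(S−N)/(P−N) against plate negative and positive controls, and DC50 values are derived.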

CRBN/DDB1 = CRBN/DDB1 (Homo sapiens, UniProt Q96SW2); experiment: HTRF binding assay (displacement of Cy5-thalidomide probe from CRBN/DDB1); settings: CRBN/DDB1 2.5 nM, Cy5-Thalidomide 100 nM, 30 min; geometric mean; read-out: HTRF_Thali_Disp_DR_geo_IC50
Sequence of CRBN/DDB1 (Q96SW2 whole entry, species assumed): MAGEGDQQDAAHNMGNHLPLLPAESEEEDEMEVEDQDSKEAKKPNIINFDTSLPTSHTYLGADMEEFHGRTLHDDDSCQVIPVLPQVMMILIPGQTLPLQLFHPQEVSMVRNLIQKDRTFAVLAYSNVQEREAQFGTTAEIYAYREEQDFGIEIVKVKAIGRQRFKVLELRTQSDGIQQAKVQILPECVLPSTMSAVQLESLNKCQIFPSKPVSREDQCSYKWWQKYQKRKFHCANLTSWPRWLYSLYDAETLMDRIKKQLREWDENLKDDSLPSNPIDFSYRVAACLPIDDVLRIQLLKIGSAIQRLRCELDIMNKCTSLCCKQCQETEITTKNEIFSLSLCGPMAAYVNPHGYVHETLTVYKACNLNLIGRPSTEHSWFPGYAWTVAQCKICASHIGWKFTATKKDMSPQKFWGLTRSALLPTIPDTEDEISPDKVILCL
Sequence of CRBN/DDB1 (Q16531 whole entry partner, species assumed): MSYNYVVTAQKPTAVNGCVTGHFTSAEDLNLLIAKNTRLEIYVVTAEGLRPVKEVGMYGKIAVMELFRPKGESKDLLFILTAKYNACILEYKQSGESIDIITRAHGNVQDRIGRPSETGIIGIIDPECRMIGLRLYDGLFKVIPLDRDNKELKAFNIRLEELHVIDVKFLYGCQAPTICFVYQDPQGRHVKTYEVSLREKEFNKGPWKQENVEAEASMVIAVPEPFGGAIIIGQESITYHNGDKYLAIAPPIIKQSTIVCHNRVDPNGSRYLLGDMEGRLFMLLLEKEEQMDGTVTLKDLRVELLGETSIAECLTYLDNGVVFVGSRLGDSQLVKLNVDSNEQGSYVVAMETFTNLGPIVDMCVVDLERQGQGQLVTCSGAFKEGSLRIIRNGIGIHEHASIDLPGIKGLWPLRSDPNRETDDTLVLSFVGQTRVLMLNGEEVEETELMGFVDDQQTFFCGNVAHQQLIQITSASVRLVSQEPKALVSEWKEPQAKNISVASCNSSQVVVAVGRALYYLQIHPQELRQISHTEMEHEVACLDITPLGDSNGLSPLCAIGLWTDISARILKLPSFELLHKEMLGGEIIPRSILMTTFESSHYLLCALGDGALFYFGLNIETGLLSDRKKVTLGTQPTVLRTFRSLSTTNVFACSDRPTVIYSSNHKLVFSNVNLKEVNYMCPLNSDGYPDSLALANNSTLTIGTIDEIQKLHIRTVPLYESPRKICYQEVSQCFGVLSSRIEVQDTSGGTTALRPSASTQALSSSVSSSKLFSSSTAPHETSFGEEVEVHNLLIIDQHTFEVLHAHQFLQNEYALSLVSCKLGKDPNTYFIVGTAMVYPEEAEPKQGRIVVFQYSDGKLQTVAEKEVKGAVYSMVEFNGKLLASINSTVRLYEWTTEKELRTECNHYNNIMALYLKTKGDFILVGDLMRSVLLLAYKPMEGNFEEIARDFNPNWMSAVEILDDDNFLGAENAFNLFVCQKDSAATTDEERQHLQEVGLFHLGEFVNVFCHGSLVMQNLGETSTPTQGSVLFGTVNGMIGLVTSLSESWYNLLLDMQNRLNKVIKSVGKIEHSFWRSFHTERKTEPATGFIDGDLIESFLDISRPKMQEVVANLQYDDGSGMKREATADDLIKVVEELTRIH
Excerpt: Binding of test compounds to CRBN/DDB1 was monitored in an HTRF assay using 1-[5-({2-[2-(2-{[2-(2,6-dioxopiperidin-3-yl)-1,3-dioxo-2,3-dihydro-1H-isoindol-4-yl]oxy}acetamido)ethoxy]ethyl}carbamoyl)pentyl]-3,3-dimethyl-2-[(1E,3E)-5-[(2E)-1,3,3-trimethyl-5-sulfo-2,3-dihydro-1H-indol-2-ylidene]penta-1,3-dien-1-yl]-3H-indol-1-ium-5-sulfonate as a fluorescent probe. In this assay, compounds displace the fluorescently labeled thalidomide-based probe bound to CRBN and fluorescence is monitored with increasing compound concentration. Assays were conducted in Greiner white 384 well HiBase plates (Cat. No 784075-25) in 10 μL total volume. A one pot detection solution of CRBN/DDB1 (2.5 nM), anti-His Terbium Cryptate Gold (1×, PerkinElmer Cat. #: 61HI2TLB), and Cy5-Thalidomide (100 nM, Tenova Cat.: T52461) was prepared in 20 mM HEPES, 20 mM NaCl, 0.2 mM TCEP, 0.2 mM EDTA, and 0.005% Tween20 was dispensed to each assay plate. Test compounds were stored in dry, ambient temperatures at 10 mM. A 10-point, 1:3 dilution series was prepared from 10 mM stock concentrations in Echo-compatible LDV plates. 10 nL of each compound dilution series was dispensed into assays wells using an Echo 650 (Labcyte inc. USA). 10 nL of 10 mM lenalidomide (Selleckchem Cat no. S1029) was transferred into the active-control wells for the assay and 10 nL of DMSO was transferred into the negative control wells. The assay was then allowed to incubate for 30 min at ambient temperature after transferring the test compounds. Plate measurements were taken on a Pherastar FSX (BMG Labtech, Germany) using the HTRF Red filter (Ex. 337 nm, em1: 620 nm, em2: 665 nm) (Flashes: 50, Integration time: 60-400 μs, Z-height: 10 mm, Ratio-multiplier: 10,000). Analysis, HTRF ratio and IC50 values were derived using KNIME analytics (KNIME Zurich) transformation and fitting within Collaborative Drug Discovery (Collaborative Drug Discovery USA) using a 4-parameter logistic fit. HTRF ratio calculation was performed using the following formula: […]
where Y represents the HTRF ratio response (as defined previously), X the compound concentration in μM, Ymin the minimum response plateau, Ymax the maximum response plateau, IC50 the concentration of agonist that gives a response half way between Ymin and Ymax and HillSlope the steepness of the family of curves. No fitting model constraints was applied on Ymin, or Ymax whilst IC50>0 and −0.5>HillSlope>−3
Ki values were derived from the geometric mean of the IC50 values using the Cheng-Prusoff transformation:
where [L] represents the concentration of fluorescent probe in μM, Kd the affinity (binding constant) of the fluorescent probe in units of μM and IC50 the concentration of agonist that gives a response halfway between Ymin and Ymax (as described in 1.2.1)
Analysis and IC50 values were derived using KNIME analytics (KNIME, Zurich) transformation and fitting within Collaborative Drug Discovery (Collaborative Drug Discovery, USA) as described in 1.2.1. Ki values were derived from the geometric mean of the IC50 values using the Cheng-Prusoff transformation as described in 2.2.2. Data was visualized in GraphPad Prism 8.1.2 (GraphPad, USA) and reported as mean and standard deviation. Microsoft Office Excel 2012 (Redmond, WA) was used for calculation of mean and standard deviation.
IC50 data are reported in Table 3 for compounds in Table 1. In Table 3 below, According to the code, A represents a IC50 value of ≤0.1 μM, B represents a IC50 value>0.1 μM and ≤1 μM, C represents an IC50 value>1 μM.

T1 sequence (P48729 whole entry): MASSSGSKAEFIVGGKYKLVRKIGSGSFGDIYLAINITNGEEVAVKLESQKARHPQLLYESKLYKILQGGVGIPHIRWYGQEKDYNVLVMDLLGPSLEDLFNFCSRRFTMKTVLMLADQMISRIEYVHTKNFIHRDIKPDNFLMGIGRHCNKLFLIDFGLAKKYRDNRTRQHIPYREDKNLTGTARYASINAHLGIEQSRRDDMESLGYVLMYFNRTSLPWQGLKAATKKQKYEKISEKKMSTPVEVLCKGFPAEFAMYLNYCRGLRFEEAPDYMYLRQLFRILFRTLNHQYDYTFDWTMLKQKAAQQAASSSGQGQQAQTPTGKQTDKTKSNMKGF
T1 sequence (Q96SW2 whole entry, further chain): as the sequence (Q96SW2 whole entry, species assumed) above
T1 sequence (Q16531 2-1140 partner limits assumed): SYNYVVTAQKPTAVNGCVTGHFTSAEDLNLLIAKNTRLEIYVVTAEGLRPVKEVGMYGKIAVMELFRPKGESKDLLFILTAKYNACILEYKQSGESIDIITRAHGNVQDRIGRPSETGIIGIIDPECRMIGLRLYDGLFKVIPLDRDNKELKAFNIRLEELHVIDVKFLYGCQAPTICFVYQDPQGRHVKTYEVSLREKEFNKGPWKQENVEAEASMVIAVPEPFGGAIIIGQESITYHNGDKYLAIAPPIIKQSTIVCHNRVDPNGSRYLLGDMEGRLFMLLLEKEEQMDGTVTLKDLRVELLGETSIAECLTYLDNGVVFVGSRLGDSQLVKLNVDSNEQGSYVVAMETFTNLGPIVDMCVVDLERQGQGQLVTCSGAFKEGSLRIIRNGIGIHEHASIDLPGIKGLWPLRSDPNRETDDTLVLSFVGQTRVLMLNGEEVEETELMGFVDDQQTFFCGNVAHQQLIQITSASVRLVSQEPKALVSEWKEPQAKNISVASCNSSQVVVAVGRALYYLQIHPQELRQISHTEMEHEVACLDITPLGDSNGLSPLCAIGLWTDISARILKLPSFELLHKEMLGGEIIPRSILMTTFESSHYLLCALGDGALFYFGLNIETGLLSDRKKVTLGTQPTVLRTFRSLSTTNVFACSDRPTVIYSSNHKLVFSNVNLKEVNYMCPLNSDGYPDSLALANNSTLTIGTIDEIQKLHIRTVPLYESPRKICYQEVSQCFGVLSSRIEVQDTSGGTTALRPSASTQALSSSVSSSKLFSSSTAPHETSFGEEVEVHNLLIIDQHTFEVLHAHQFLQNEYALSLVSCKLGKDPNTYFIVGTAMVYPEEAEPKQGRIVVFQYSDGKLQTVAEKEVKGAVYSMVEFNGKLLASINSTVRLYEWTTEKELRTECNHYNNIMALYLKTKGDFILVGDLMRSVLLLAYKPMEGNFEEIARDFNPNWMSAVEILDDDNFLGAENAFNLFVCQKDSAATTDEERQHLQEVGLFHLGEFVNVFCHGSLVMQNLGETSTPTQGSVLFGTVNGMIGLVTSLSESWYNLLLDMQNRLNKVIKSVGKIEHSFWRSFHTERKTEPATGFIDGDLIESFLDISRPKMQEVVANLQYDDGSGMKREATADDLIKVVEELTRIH

DC50 (CK1α) [µM]	pIC50 (CRBN/DDB1)	Structure (SMILES)
0.1 to 1	6.00 to 7.00	O=C1CCC(N2Cc3cc(NC(=O)N4CCOc5ccccc54)ccc3C2=O)C(=O)N1 (stereo not drawn) [Compound 285, N-(2-(2,6-dioxopiperidin-3-yl)-1-oxoisoindolin-5-yl)-2H-benzo[b][1,4]oxazine-4(3H)-carboxamide]
0.1 to 1	6.00 to 7.00	CN1CCN(C(=O)Nc2ccc3c(c2)CN(C2CCC(=O)NC2=O)C3=O)c2ccccc21 (stereo not drawn) [Compound 286]
< 0.1	6.00 to 7.00	C[C@@H]1Cc2ccccc2N1C(=O)Nc1ccc2c(c1F)CN(C1CCC(=O)NC1=O)C2=O (stereo partly drawn) [Compound 289, (2R)—N-(2-(2,6-dioxopiperidin-3-yl)-4-fluoro-1-oxoisoindolin-5-yl)-2-methylindoline-1-carboxamide]
< 0.1	6.00 to 7.00	O=C1CCC(N2Cc3cc(NC(=O)N4CCc5ccc(-n6cccn6)cc54)ccc3C2=O)C(=O)N1 (stereo not drawn) [Compound 290]
< 0.1	6.00 to 7.00	O=C1CCC(N2Cc3cc(NC(=O)N4CCc5ccc(C6CC6)cc54)ccc3C2=O)C(=O)N1 (stereo not drawn) [Compound 291, 6-cyclopropyl-N-(2-(2,6-dioxopiperidin-3-yl)-1-oxoisoindolin-5-yl)indoline-1-carboxamide]
< 0.1	6.00 to 7.00	O=C1CCC(N2Cc3cc(NC(=O)N4c5ccccc5CC4C(F)(F)F)ccc3C2=O)C(=O)N1 (stereo not drawn) [Compound 292, N-(2-(2,6-dioxopiperidin-3-yl)-1-oxoisoindolin-5-yl)-2-(trifluoromethyl)indoline-1-carboxamide]
< 0.1	6.00 to 7.00	C[C@@H]1Cc2ccccc2N1C(=O)Nc1cc2c(cc1F)C(=O)N(C1CCC(=O)NC1=O)C2 (stereo partly drawn) [Compound 293, (2R)—N-(2-(2,6-dioxopiperidin-3-yl)-6-fluoro-1-oxoisoindolin-5-yl)-2-methylindoline-1-carboxamide]
< 0.1	6.00 to 7.00	COC[C@@H]1Cc2cc(C(F)(F)F)ncc2N1C(=O)Nc1ccc2c(c1)CN(C1CCC(=O)NC1=O)C2=O (stereo partly drawn) [Compound 294, (2S)—N-(2-(2,6-dioxopiperidin-3-yl)-1-oxoisoindolin-5-yl)-2-(methoxymethyl)-5-(trifluoromethyl)-2,3-dihydro-1H-pyrrolo[2,3-c]pyridine-1-carboxamide]
< 0.1	6.00 to 7.00	COC[C@H]1Cc2cc(C(F)(F)F)ncc2N1C(=O)Nc1ccc2c(c1)CN(C1CCC(=O)NC1=O)C2=O (stereo partly drawn) [Compound 295, (2R)—N-(2-(2,6-dioxopiperidin-3-yl)-1-oxoisoindolin-5-yl)-2-(methoxymethyl)-5-(trifluoromethyl)-2,3-dihydro-1H-pyrrolo[2,3-c]pyridine-1-carboxamide]
< 0.1	6.00 to 7.00	O=C1CCC(N2Cc3cc(NC(=O)N4c5ccc(C(F)(F)F)cc5CC45COC5)ccc3C2=O)C(=O)N1 (stereo not drawn) [Compound 298]
< 0.1	6.00 to 7.00	COCC1c2ccc(C(F)F)cc2CN1C(=O)Nc1ccc2c(c1)CN(C1CCC(=O)NC1=O)C2=O (stereo not drawn) [Compound 299, 5-(difluoromethyl)-N-(2-(2,6-dioxopiperidin-3-yl)-1-oxoisoindolin-5-yl)-1-(methoxymethyl)isoindoline-2-carboxamide]
< 0.1	6.00 to 7.00	O=C1CCC(N2Cc3cc(NC(=O)N4c5cccc(F)c5C[C@H]4COCC(F)(F)F)ccc3C2=O)C(=O)N1 (stereo partly drawn) [Compound 300, (2S)—N-(2-(2,6-dioxopiperidin-3-yl)-1-oxoisoindolin-5-yl)-4-fluoro-2-((2,2,2-trifluoroethoxy)methyl)indoline-1-carboxamide]
< 0.1	6.00 to 7.00	COCC1c2cc(C(F)(F)F)ccc2CN1C(=O)Nc1ccc2c(c1)CN(C1CCC(=O)NC1=O)C2=O (stereo not drawn) [Compound 301]
< 0.1	6.00 to 7.00	O=C1CCC(N2Cc3cc(NC(=O)N4Cc5cc(C6CC6)ccc5C45COC5)ccc3C2=O)C(=O)N1 (stereo not drawn) [Compound 302, 5-cyclopropyl-N-(2-(2,6-dioxopiperidin-3-yl)-1-oxoisoindolin-5-yl)spiro[isoindoline-1,3′-oxetane]-2-carboxamide]
< 0.1	6.00 to 7.00	O=C1CCC(N2Cc3cc(NC(=O)N4c5cccc(F)c5CC45COC5)ccc3C2=O)C(=O)N1 (stereo not drawn) [Compound 304, N-(2-(2,6-dioxopiperidin-3-yl)-1-oxoisoindolin-5-yl)-4-fluorospiro[indoline-2,3′-oxetane]-1-carboxamide]
< 0.1	6.00 to 7.00	O=C1CCC(N2Cc3cc(NC(=O)N4c5ccccc5C5CC54)ccc3C2=O)C(=O)N1 (stereo not drawn) [Compound 305, N-(2-(2,6-dioxopiperidin-3-yl)-1-oxoisoindolin-5-yl)-1a, 6b-dihydrocyclopropa[b]indole-2(1H)-carboxamide]
< 0.1	6.00 to 7.00	O=C1CCC(N2Cc3cc(NC(=O)N4c5ccc(F)cc5CC45COC5)ccc3C2=O)C(=O)N1 (stereo not drawn) [Compound 306, N-(2-(2,6-dioxopiperidin-3-yl)-1-oxoisoindolin-5-yl)-5-fluorospiro[indoline-2,3′-oxetane]-1-carboxamide]
< 0.1	6.00 to 7.00	O=C1CCC(N2Cc3cc(NC(=O)N4c5cccc(F)c5C[C@H]4COC(F)F)ccc3C2=O)C(=O)N1 (stereo partly drawn) [Compound 308, (2S)-2-((difluoromethoxy)methyl)-N-(2-(2,6-dioxopiperidin-3-yl)-1-oxoisoindolin-5-yl)-4-fluoroindoline-1-carboxamide]
< 0.1	6.00 to 7.00	O=C1CCC(N2Cc3cc(NC(=O)N4c5ccccc5C[C@H]4COC(F)F)ccc3C2=O)C(=O)N1 (stereo partly drawn) [Compound 309, (2S)-2-((difluoromethoxy)methyl)-N-(2-(2,6-dioxopiperidin-3-yl)-1-oxoisoindolin-5-yl)indoline-1-carboxamide]
0.1 to 1	6.00 to 7.00	NC[C@@H]1Cc2ccccc2N1C(=O)Nc1ccc2c(c1)CN(C1CCC(=O)NC1=O)C2=O (stereo partly drawn) [Compound 310, (2S)-2-(aminomethyl)-N-(2-(2,6-dioxopiperidin-3-yl)-1-oxoisoindolin-5-yl)indoline-1-carboxamide]
< 0.1	6.00 to 7.00	O=C1CCC(N2Cc3cc(NC(=O)N4c5ccccc5C[C@H]4COC(F)(F)F)ccc3C2=O)C(=O)N1 (stereo partly drawn) [Compound 311, (2S)—N-(2-(2,6-dioxopiperidin-3-yl)-1-oxoisoindolin-5-yl)-2-((trifluoromethoxy)methyl)indoline-1-carboxamide]
0.1 to 1	6.00 to 7.00	CNC[C@@H]1Cc2ccccc2N1C(=O)Nc1ccc2c(c1)CN(C1CCC(=O)NC1=O)C2=O (stereo partly drawn) [Compound 312, (2S)—N-(2-(2,6-dioxopiperidin-3-yl)-1-oxoisoindolin-5-yl)-2-((methylamino)methyl)indoline-1-carboxamide]
< 0.1	6.00 to 7.00	CCOC[C@@H]1Cc2ccccc2N1C(=O)Nc1ccc2c(c1)CN(C1CCC(=O)NC1=O)C2=O (stereo partly drawn) [Compound 313, (2S)—N-(2-(2,6-dioxopiperidin-3-yl)-1-oxoisoindolin-5-yl)-2-(ethoxymethyl)indoline-1-carboxamide]
< 0.1	6.00 to 7.00	COC[C@@H]1Cc2c(F)cccc2N1C(=O)Nc1ccc2c(c1)CN(C1CCC(=O)NC1=O)C2=O (stereo partly drawn) [Compound 314, (2S)—N-(2-(2,6-dioxopiperidin-3-yl)-1-oxoisoindolin-5-yl)-4-fluoro-2-(methoxymethyl)indoline-1-carboxamide]
